Patent US10280170B2, “Substituted 4,5,6,7-tetrahydro-pyrazolo[1,5-a]pyrazine derivatives and 5,6,7,8-tetrahydro-4H-pyrazolo[1,5-a][1,4]diazepine derivatives as Ros1 inhibitors” (Janssen Pharmaceutica NV, priority 2014, dated 2019)
Like-named read-outs stand apart in the source and are kept apart here.

Experiments:
[1] = tested on: HCC78 non-small cell lung cancer cells; assay: HCC78 cell proliferation assay; assay type: cell-based; settings: for EC50: Homo sapiens, HCC78, 96 h, read-out: HCC-78 PROL pEC50 (converted)
How it was run: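 HCC78 NSCLC cells (~1000/well) in RPMI-1640 with 10% FBS were treated 24 h after seeding and exposed to compound for 4 days at 37 °C. Viability was read by MTT, with absorbance at 538 nm after DMSO/glycine solubilization.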

Ros1 enzyme = target: T1, Ros1 enzyme (Homo sapiens, UniProt P08922); assay: Ros1 enzymatic assay; assay type: biochemical; settings: Ros1 enzymatic assay; for IC50: read-out: ROS1 pIC50 (converted)
T1 construct: 0.5 μg/ml Ros1 enzyme
T1 sequence (P08922 28-2347): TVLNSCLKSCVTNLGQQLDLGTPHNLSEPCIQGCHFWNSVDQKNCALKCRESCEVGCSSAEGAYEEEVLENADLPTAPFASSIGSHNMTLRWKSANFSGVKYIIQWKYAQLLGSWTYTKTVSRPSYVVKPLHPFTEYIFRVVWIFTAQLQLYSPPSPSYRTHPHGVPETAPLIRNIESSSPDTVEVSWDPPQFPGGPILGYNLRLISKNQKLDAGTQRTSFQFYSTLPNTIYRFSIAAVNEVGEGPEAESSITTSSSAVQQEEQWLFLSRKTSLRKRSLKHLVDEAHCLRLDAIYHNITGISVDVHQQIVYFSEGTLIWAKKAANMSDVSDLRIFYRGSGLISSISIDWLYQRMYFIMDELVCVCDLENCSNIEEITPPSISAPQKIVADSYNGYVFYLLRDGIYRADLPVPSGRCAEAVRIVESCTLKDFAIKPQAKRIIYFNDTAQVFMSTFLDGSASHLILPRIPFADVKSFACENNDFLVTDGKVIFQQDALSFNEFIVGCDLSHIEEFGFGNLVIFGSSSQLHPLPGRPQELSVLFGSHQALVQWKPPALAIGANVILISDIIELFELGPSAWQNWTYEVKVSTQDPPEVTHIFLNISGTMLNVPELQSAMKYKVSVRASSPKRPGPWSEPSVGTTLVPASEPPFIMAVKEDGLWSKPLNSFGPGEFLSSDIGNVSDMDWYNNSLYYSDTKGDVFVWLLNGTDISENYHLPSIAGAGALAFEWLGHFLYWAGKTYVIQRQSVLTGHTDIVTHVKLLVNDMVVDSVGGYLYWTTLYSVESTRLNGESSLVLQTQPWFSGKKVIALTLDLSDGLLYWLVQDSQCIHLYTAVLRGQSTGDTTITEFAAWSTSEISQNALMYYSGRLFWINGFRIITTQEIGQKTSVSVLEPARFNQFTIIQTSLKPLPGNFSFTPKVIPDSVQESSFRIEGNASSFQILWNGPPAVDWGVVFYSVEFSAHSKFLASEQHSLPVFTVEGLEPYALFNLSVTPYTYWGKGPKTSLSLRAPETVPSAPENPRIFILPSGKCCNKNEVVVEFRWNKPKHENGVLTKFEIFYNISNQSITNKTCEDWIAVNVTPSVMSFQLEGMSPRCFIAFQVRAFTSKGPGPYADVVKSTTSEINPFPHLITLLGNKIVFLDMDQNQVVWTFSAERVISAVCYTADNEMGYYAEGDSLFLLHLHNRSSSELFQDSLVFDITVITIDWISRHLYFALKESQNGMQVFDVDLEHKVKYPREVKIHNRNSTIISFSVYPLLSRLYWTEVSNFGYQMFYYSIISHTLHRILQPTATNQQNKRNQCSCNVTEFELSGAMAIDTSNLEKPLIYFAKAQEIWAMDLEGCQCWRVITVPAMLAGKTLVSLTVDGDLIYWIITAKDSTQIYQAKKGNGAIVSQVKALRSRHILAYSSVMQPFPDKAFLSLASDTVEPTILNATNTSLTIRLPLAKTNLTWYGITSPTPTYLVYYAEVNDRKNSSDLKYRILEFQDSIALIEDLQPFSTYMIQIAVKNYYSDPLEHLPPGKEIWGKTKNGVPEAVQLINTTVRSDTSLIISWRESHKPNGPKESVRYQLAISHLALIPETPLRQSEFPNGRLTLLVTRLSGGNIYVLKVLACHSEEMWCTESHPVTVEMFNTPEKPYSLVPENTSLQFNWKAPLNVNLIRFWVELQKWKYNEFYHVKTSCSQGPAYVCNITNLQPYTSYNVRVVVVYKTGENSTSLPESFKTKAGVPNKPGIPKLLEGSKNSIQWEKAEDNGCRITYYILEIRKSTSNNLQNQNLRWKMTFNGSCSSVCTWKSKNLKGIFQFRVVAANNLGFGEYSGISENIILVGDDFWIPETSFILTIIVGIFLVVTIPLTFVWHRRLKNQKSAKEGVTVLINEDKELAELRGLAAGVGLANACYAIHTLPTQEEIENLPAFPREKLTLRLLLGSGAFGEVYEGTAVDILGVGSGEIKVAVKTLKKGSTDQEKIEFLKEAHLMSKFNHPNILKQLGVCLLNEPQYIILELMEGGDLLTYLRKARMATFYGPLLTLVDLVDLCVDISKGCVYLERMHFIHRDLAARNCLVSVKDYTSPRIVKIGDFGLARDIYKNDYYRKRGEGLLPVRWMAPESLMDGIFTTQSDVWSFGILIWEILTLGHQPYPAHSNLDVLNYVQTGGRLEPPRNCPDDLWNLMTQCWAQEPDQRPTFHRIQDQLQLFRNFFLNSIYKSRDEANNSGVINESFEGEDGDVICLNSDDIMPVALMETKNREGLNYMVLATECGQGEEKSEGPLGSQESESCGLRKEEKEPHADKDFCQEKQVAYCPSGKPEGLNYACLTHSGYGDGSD
How it was run: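 Ros1 (0.5 μg/ml in enzyme mix) was combined with a substrate mix of biotinylated IRS-Tide (6 μg/ml) and 20 μM ATP spiked with 33P-ATP in 50 mM Tris-HCl pH7.5, 10 mM MgCl2, 1 mM EGTA, 0.01% Tween-20. Reaction ran 120 min at room temperature before EDTA stop.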

[2] = tested on: Ba/F3 cells containing Ros1 wild-type protein + IL-3; assay: Ba/F3-Ros1 cell proliferation counter-screen, wild-type protein in the presence of 10 ng/ml murine IL-3; assay type: cell-based; settings: Mus musculus, BaF3, 24 h, read-out: BaF3-ROS1 + IL3 pIC50 (converted)
How it was run: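 Ba/F3 cells expressing wild-type Ros1 were grown with 10 ng/ml murine IL-3 and test compound in RPMI-1640 with 10% FBS and 2 mM L-glutamine for 24 h at 37 °C, 5% CO2. Viability was then read as Alamar Blue (resazurin) fluorescence (ex 540/em 590 nm) after 4 h further incubation.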

[3] = target: Ba/F3 cells containing Ros1 with a mutation at the gatekeeper residue (L2026M) (Homo sapiens, UniProt P08922, L2026M, cells depend on it, form not given); assay: Ba/F3-Ros1 cell proliferation assay, L2026M gatekeeper mutant; assay type: cell-based, murine; settings: without IL-3
Chain of Ba/F3 cells containing Ros1 with a mutation at the gatekeeper residue (L2026M) (P08922 whole entry L2026M, form open): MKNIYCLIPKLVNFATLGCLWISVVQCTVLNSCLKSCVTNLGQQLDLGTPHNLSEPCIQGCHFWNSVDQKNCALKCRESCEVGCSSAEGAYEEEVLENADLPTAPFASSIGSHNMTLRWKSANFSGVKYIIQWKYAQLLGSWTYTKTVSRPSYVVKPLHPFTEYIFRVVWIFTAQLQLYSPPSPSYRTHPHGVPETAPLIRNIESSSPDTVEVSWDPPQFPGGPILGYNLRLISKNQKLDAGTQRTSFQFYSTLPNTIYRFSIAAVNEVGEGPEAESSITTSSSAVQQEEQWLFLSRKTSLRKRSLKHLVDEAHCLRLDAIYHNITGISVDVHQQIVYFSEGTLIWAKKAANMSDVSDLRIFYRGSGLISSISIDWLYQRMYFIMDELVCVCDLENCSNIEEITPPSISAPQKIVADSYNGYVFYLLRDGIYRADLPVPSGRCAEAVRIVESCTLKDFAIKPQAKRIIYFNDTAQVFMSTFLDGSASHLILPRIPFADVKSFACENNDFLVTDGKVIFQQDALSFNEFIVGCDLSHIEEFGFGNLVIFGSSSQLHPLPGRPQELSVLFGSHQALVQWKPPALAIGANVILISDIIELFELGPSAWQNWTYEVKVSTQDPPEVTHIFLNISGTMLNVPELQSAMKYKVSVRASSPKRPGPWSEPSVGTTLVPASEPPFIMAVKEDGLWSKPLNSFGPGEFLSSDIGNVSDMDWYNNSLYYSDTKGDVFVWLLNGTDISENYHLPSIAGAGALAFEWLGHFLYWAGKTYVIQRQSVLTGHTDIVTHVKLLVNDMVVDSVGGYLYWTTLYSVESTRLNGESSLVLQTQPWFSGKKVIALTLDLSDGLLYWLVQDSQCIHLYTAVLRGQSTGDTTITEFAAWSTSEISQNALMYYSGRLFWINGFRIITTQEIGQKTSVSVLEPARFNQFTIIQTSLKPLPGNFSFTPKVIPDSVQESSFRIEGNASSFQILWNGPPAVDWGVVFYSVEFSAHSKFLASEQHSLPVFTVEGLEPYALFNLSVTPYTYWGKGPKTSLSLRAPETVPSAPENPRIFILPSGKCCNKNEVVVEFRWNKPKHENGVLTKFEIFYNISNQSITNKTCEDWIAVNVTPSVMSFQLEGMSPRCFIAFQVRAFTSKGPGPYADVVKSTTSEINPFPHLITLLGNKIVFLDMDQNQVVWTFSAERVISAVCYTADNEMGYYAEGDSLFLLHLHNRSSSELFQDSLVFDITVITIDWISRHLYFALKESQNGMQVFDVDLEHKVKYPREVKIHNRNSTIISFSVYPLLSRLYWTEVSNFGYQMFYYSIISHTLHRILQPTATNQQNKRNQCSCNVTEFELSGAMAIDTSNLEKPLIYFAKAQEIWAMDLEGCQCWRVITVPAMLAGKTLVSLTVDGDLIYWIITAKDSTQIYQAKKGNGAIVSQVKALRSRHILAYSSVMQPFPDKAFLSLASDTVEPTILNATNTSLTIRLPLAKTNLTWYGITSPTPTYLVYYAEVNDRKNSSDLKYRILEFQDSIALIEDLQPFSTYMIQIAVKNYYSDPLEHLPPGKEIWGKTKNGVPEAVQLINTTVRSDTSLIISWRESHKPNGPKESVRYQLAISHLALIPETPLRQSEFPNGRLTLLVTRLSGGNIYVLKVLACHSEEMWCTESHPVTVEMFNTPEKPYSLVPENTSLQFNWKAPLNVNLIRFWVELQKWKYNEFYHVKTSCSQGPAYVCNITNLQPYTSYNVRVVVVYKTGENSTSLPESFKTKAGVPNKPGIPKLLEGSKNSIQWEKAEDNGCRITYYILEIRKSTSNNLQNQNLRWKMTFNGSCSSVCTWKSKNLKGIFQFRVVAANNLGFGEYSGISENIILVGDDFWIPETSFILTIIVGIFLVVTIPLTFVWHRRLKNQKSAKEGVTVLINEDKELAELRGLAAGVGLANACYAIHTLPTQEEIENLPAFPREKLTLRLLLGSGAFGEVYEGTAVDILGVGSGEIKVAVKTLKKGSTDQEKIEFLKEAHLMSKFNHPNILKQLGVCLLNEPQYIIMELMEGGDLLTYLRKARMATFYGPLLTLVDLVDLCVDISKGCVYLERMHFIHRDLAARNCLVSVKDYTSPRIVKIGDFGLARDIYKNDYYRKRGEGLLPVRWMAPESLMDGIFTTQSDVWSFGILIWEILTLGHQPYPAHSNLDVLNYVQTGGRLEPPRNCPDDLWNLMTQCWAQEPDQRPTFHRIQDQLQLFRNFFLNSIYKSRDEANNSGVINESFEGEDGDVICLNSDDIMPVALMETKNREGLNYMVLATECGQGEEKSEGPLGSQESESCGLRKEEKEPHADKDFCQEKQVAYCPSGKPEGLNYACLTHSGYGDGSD
How it was run: (§1)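 Ba/F3 cells expressing wild-type, L2026M or G2032R Ros1, 20000 cells/well in phenol red-free RPMI-1640 with 10% FBS, 2 mM L-glutamine, exposed to compound for 24 h at 37 °C, 5% CO2. Viability read by Alamar Blue (resazurin) fluorescence, ex 540/em 590 nm, after 4 h further incubation.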

[4] = target: Ba/F3 cells containing Ros1 with G2032R mutation (Homo sapiens, UniProt P08922, G2032R, cells depend on it, form not given); assay: Ba/F3-Ros1 cell proliferation assay, G2032R crizotinib-resistance mutant; assay type: cell-based, murine; settings: without IL-3
Chain of Ba/F3 cells containing Ros1 with G2032R mutation (P08922 whole entry G2032R, form open): as the sequence (P08922 whole entry L2026M, form open) above, with M2026L, G2032R counted along it
Protocol: Ba/F3-Ros1 Cell Proliferation Assay
This assay was carried out with Ba/F3 cells containing three different versions of Ros1: the wild-type protein, protein with a mutation at the gatekeeper residue (L2026M), and protein with a mutation identified in a tumor from a patient that became resistant to crizotinib (Xalkori®) treatment (G2032R). Compounds were solubilized in 100% DMSO (dimethyl sulfoxide) and sprayed into polystyrene, tissue culture treated 384-well plates. A 50 μl volume of cell culture medium (phenol red free RPMI-1640, 10% FBS (fetal bovine serum), 2 mM L-Glutamine) containing 20000 Ba/F3-Ros1 cells was added to each well and the plates were placed in an incubator at 37° C. and 5% CO2. After 24 hours, 10 μl of Alamar Blue solution (0.5 mM K3Fe(CN)6, 0.5 mM K4Fe(CN)6, 0.15 mM Resazurin and 100 mM Phosphate Buffer) was added to the wells, incubated for 4 hours at 37° C. and 5% CO2 before RFU's (Relative Fluorescence Units) (ex. 540 nm., em. 590 nm.) were measured in a fluorescence plate reader.

[5] = target: T2, Ba/F3 cells containing Ros1 wild-type protein (Homo sapiens, UniProt P08922, cells depend on it, form not given); assay: Ba/F3-Ros1 cell proliferation assay, wild-type Ros1; assay type: cell-based, murine; settings: without IL-3
T2 construct: The background only speaks of 'a number of different unrelated proteins' and names SLC34A2-ROS1 for HCC78 cells
T2 sequence (P08922 whole entry, stated change not applied): as the sequence (P08922 whole entry L2026M, form open) above, with M2026L counted along it
How it was run: as §1

[6] = tested on: Ros pY2274 in HCC78 cells; assay: pROS1 immunofluorescence assay in HCC78 cells; assay type: cell-based; settings: Homo sapiens; HCC78 cells, 4 hours, Ros pY2274 normalized to total Ros1; read-out: HCC78-pRos1 pIC50 (converted)
Protocol: pROS1 Immunofluorescence Assay in HCC78 Cells
Approximately 20000 HCC78 non-small cell lung cancer cells in 180 μl of cell culture medium (RPMI-1640, 10% FBS, 2 mM L-Glutamine, 10 mM Hepes, 1 mM sodium pyruvate, 4.5 g/L glucose, 1.5 g/L sodium bicarbonate, 25 μg/ml Gentamycin) were seeded in each well of a 96-well polystyrene, poly-D-lysine coated plate and incubated at 37° C. and 5% CO2. After 24 hours, compounds were diluted in cell culture medium from which 20 μl was added to the wells containing cells and incubated for 4 hours at 37° C. and 5% CO2. The medium was removed and the cells were fixed by adding 100 μl of 5% formaldehyde in TBS (tris-buffered saline) (50 mM Tris.HCl, pH 7.4, 150 mM NaCl) and incubating for 15 minutes at room temperature. The formaldehyde was removed and replaced with methanol for 10 minutes at room temperature, after which the cells were washed 3 times with TBS containing 1% Triton X-100 and incubated in Odyssee (Li-Cor) blocking buffer for 1 hour at room temperature. The cells were then incubated with the primary rabbit antibody directed against Ros pY2274 (cst-3078) diluted 1/200 in blocking buffer for 24 hours at room temperature. The cells were washed three times with TBS containing 0.1% Triton X-100 and incubated with a secondary anti-rabbit antibody conjugated to the fluorescent dye Alexafluor 680 in blocking buffer for 1 hour at room temperature. The cells were washed three times with TBS containing 0.1% Triton X-100 and left to dry before measuring RFUs (Relative Fluorescence Units) at 700 nm using a fluorescence imager.
The same experiment was performed using total Ros1 antibody (sc-6347) diluted 1/1000 instead of Ros1 pY2274 antibody and an anti-goat antibody conjugated to IRDye800cw as a secondary antibody. RFUs were measured at […]. The signals from total Ros1 detection were used to normalize the Ros1 pY2274 values.

[7] = counter-screen, wild-type, 10 ng/ml murine IL-3

Compound | EC50 [1] | IC50 (Ros1 enzyme) | CC50 [2] | Ba/F3 Ros1 L2026M (-IL-3) pIC50 [3] | Ba/3 Ros1 G2032R (-IL-3) pIC50 [4] | BaF3-ROS1-IL3 pIC50 [5] | melting point | HCC-78 PROL pEC50 ([1]; HCC78 cells, 4 days, MTT) | ROS1 pIC50 (Ros1 enzyme) | EC50 ([1]; HCC78 cells, 4 days, MTT) | CC50 [2, 7] | IC50 [6]
CC(C)c1ccc(COc2ccc(-c3c(-c4ccncc4)nn4c3C(=O)NCC4)cc2F)cc1 [Compound 18] | 0.0398 µM | 0.01 µM | > 10 µM | 7.7 | 7.3 | 7.7 | 241 °C | – | – | – | – | –
CC(C)c1ccc(COc2ccc(-c3c(-c4ccncc4)nn4c3C(=O)N(CCO)CC4)cc2F)cc1 [Compound 19] | < 0.0316 µM | 0.0126 µM | > 10 µM | 8.0 | 7.5 | 8.2 | 172 °C | – | – | – | – | –
CC(C)c1ccc(COc2ccc(-c3c(-c4ccncc4)nn4c3C(=O)N(CCO)CC4)c(F)c2)cc1 [Compound 21] | 0.0398 µM | 0.01 µM | > 10 µM | 7.6 | 7.4 | 7.8 | 141 °C | – | – | – | – | –
CC(C)c1ccc(COc2ccc(-c3c(-c4ccncc4)nn4c3C(=O)N(CCO)CC4)c(C#N)c2)cc1 [Compound 28] | 0.0631 µM | 0.0158 µM | > 10 µM | 7.7 | 7.3 | 7.8 | 185 °C | – | – | – | – | –
CC(C)c1ccc(COc2ccc(-c3c(-c4ccncc4)nn4c3C(=O)N(CC(O)CO)CC4)cc2)cc1 (stereo not shown) [Compound 44] | – | 0.0501 µM | – | 6.9 | 6.8 | 7.4 | 192 °C | 6.6 | – | – | – | –
CC(O)CN1CCn2nc(-c3ccncc3)c(-c3ccc(OCc4ccc(C(C)C)cc4)cc3)c2C1=O (stereo not shown) [Compound 46] | – | – | – | 7.1 | 6.9 | 7.5 | 177 °C | 7.0 | 7.3 | – | – | –
CC(O)CN1CCn2nc(-c3ccncc3)c(-c3ccc(OCc4ccc(C(C)C)cc4)cc3)c2C1=O (stereo not shown) [Compound 47] | – | 0.0501 µM | – | 7.5 | 6.9 | 7.3 | – | – | – | 0.0794 µM | > 10 µM | –
CC(C)c1ccc(COc2ccc(-c3c(-c4ccncc4)nn4c3C(=O)N(CC(C)(C)O)CC4)cc2)cc1 [Compound 51] | 0.1 µM | 0.0794 µM | > 10 µM | 7.3 | 6.6 | 7.2 | 211 °C | – | – | – | – | –
CC(C)c1ccc(COc2ccc(-c3c(-c4ccncc4)nn4c3C(=O)N(CCOCCO)CC4)cc2)cc1 [Compound 53] | – | 0.0398 µM | – | 6.9 | 7.0 | 7.4 | 121 °C | – | – | 0.1 µM | > 10 µM | –
CNC(=O)CN1CCn2nc(-c3ccncc3)c(-c3ccc(OCc4ccc(C(C)C)cc4)cc3)c2C1=O [Compound 63] | 0.398 µM | 0.1 µM | > 10 µM | 7.3 | 6.7 | 7.1 | 161 °C | – | – | – | – | –
COCCc1cc(COc2ccc(-c3c(-c4ccncc4)nn4c3C(=O)NCC4)cc2)ccc1C(C)C [Compound 84] | 0.0316 µM | 0.0251 µM | > 10 µM | 7.2 | 7.0 | 7.7 | 208 °C | – | – | – | – | –
CC(C)c1cc(F)c(COc2ccc(-c3c(-c4ccncc4)nn4c3C(=O)N(CCO)CC4)cc2)cc1F [Compound 97] | 3.16 µM | 0.158 µM | > 10 µM | 6.3 | <5 | 6.9 | 147 °C | – | – | – | – | –
CC(C)c1ccc(C2CCc3cc(-c4c(-c5ccncc5)nn5c4C(=O)N(CCO)CC5)ccc3O2)cc1 (stereo not shown) [Compound 200] | 0.316 µM | 0.126 µM | > 10 µM | 6.3 | 6.6 | 7.3 | – | – | – | – | – | –
CC(C)c1ccc(COc2ccc(-c3c(-c4ccncn4)nn4c3C(=O)N(C)CC4)cc2)cc1 [Compound 214] | – | 0.0316 µM | – | 7.3 | – | 7.4 | 160 °C | – | – | 0.1 µM | > 10 µM | 0.0316 µM
